Measurements: ChEMBL document CHEMBL2417359, “Discovery of N-(2,3,5-triazoyl)mycophenolic amide and mycophenolic epoxyketone as novel inhibitors of human IMPDH” (Bioorg Med Chem Lett, 2013)
pIC50: −log10 of the molar value. Values joined by “and” are separate entries in the source; they are usually repeats but may differ in a detail not shown here. Equal entries are not always repeated. Blank lines part the entries; values can stand above or below the compound they belong to. Active and inactive are the calls of the source. The rule behind the calls is not given here.

Experiments:
K562 [1] = assay: Cytotoxicity against human K562 cells; assay type: functional, cell-based
[2] = target: Inosine-5'-monophosphate dehydrogenase 1 (Homo sapiens, UniProt P20839); assay: Inhibition of human IMPDH1
Chain of Inosine-5'-monophosphate dehydrogenase 1 (P20839 whole entry): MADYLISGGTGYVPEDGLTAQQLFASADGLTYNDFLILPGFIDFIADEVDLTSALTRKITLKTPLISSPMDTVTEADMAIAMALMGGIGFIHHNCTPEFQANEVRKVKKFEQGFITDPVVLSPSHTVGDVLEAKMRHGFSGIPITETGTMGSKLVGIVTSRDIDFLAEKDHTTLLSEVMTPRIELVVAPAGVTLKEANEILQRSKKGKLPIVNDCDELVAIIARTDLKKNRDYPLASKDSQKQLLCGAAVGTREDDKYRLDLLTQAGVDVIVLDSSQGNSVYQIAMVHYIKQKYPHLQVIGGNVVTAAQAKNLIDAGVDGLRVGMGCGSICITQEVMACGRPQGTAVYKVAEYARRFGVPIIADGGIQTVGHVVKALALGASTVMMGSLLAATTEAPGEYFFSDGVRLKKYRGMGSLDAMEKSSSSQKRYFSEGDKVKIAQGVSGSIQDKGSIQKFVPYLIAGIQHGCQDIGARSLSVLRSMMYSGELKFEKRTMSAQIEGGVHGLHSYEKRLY

[3] = target: Inosine-5'-monophosphate dehydrogenase 2 (Homo sapiens, UniProt P12268); assay: Inhibition of human IMPDH2
K562 [4] = assay: Induction of human K562 cell differentiation at 1 to 30 uM after 72 hrs by trypan blue exclusion assay in presence of guanosine; assay type: functional, cell-based
K562 [5] = assay: Antiproliferative activity against human K562 cells at 1 uM in presence of guanosine; assay type: functional, cell-based
Homo sapiens = species: Homo sapiens; assay: Selectivity index, ratio of IC50 for human IMPDH1 to IC50 for human IMPDH2
K562 [6] = assay: Antiproliferative activity against human K562 cells at 1 uM; assay type: functional, cell-based
K562 [7] = assay: Induction of human K562 cell differentiation at 30 uM after 72 hrs by trypan blue exclusion assay; assay type: functional, cell-based
K562 [8] = assay: Induction of human K562 cell differentiation at 1 uM after 72 hrs by trypan blue exclusion assay in presence of guanosine; assay type: functional, cell-based
[9] = target: Histone deacetylase (Homo sapiens) (UniProt Q13547+O15379+Q9UBN7+Q92769+Q9UQL6+Q8WUI4+Q9BY41+Q96DB2+P56524+Q9UKV0+Q969S8); assay: Inhibition of HDAC in human K562 cells using Boc-Lys[Ac]-AMC as substrate at 10 uM incubated for 10 mins prior to substrate addition measured after 80 mins by fluorescence assay; assay type: cell-based
K562 [10] = assay: Induction of human K562 cell differentiation at 5 uM after 72 hrs by trypan blue exclusion assay in presence of guanosine; assay type: functional, cell-based
K562 [11] = assay: Antiproliferative activity against human K562 cells at 5 uM in presence of guanosine; assay type: functional, cell-based
K562 [12] = assay: Antiproliferative activity against human K562 cells at 5 uM; assay type: functional, cell-based
K562 [13] = assay: Antiproliferative activity against human K562 cells at 1 mM in presence of guanosine; assay type: functional, cell-based
K562 [14] = assay: Induction of human K562 cell differentiation at 2.5 uM after 72 hrs by trypan blue exclusion assay in presence of guanosine; assay type: functional, cell-based
K562 [15] = assay: Antiproliferative activity against human K562 cells at 2.5 uM in presence of guanosine; assay type: functional, cell-based
K562 [16] = assay: Antiproliferative activity against human K562 cells at 2.5 uM; assay type: functional, cell-based

Compound: COc1c(C)c2c(c(O)c1C/C=C(\C)CCC(=O)Nn1cnnc1)C(=O)OC2
pIC50 (K562 [1]): 4.51

pIC50 [2]: 6.17
pIC50 [3]: 6.41
Compound: COc1c(C)c2c(c(O)c1C/C=C(\C)CCC(=O)[C@@H]1CO1)C(=O)OC2 [listing 1 of 3 here]
pIC50 (K562 [1]): 5.64

Ratio IC50 (Homo sapiens): 1.1
pIC50 [2]: 6.98
pIC50 [3]: 7.01
Compound: COc1c(C)c2c(c(O)c1C/C=C(\C)CCC(=O)Nc1ncn[nH]1)C(=O)OC2
Activity (K562 [4]): inactive
Activity (K562 [5]): inactive
Activity (K562 [6]): Active
Activity (K562 [7]): Active
pIC50 (K562 [1]): 6.32

Compound: COc1c(C)c2c(c(O)c1C/C=C(\C)CCCSC(C)=O)C(=O)OC2
pIC50 (K562 [1]): 4.59

Compound: COc1c(C)c2c(c(O)c1C/C=C(\C)CCC(=O)Nc1nccs1)C(=O)OC2
pIC50 (K562 [1]): 4.66

pIC50 [2]: 6.25
pIC50 [3]: 6.48
Compound: COc1c(C)c2c(c(O)c1C/C=C(\C)CCC(=O)[C@@H]1CO1)C(=O)OC2 [listing 2 of 3 here]
pIC50 (K562 [1]): 5.54

Compound: COc1c(C)c2c(c(O)c1C/C=C(\C)CCC(=O)Nc1nncs1)C(=O)OC2
pIC50 (K562 [1]): 4.57

Compound: COc1c(C)c2c(c(O)c1C/C=C(\C)CCC(=O)Nc1nnn[nH]1)C(=O)OC2
pIC50 (K562 [1]): 4.47

inhibition [9]: 3%
Compound: COc1c(C)c2c(c(O)c1C/C=C(\C)CCC(=O)O)C(=O)OC2
Activity (K562 [8]): inactive
Activity (K562 [5]): inactive
Activity (K562 [6]): Active

inhibition [9]: 15% and 19%
Ratio IC50 (Homo sapiens): 1.8 and 1.7
Compound: COc1c(C)c2c(c(O)c1C/C=C(\C)CCC(=O)[C@@H]1CO1)C(=O)OC2 [listing 3 of 3 here]
Activity (K562 [10]): inactive
Activity (K562 [11]): inactive
Activity (K562 [12]): Active

Compound: CCCC(=O)[O-].[Na+]
Activity (K562 [13]): Active

Compound: COc1c(C)c2c(c(O)c1C/C=C(\C)CCC(=O)Nc1ccccn1)C(=O)OC2
pIC50 (K562 [1]): 4.59

inhibition [9]: 76%
Compound: COc1c(C)c2c(c(O)c1C/C=C(\C)CCC(=O)NO)C(=O)OC2
Activity (K562 [14]): inactive
Activity (K562 [15]): inactive
Activity (K562 [16]): Active

Compound: COc1c(C)c2c(c(O)c1C/C=C(\C)CCCS)C(=O)OC2
pIC50 (K562 [1]): 4.13
